This is an account of results in patent publication US6566337B1, “Compounds with growth hormone releasing properties” (Novo Nordisk A/S, priority 1998, dated 2003).

Square brackets hold non-standard residues; d marks the D form. Peptide text beside a SMILES is read from it. d2Nal = N[C@H](Cc1ccc2ccccc2c1)C(=O)O

One data set concerns carboxypeptidase Y and B. The data set can be described thus: Metabolic stability in carboxypeptidase mix (ESMS, SIM signal). The settings on record: carboxypeptidase Y and B in 50 mM ammoniumacetate pH 4.5, 37° C., 24 h, decrease in SIM signal.
For data set [1], the system named is trypsin, chymotrypsin and elastase. In words: Metabolic stability in pancreatic enzyme mix (ESMS, SIM signal). The settings on record: chymotrypsin and elastase in 100 mM ammoniumbicarbonate pH 8.0, 37° C., 24 h, decrease in SIM signal.
Method: (§1) Compounds is dissolved at a concentration of 1 mg/ml in water. 25 ml of this solution is added to 175 ml of the respective enzyme-solution (resulting in an enzyme:substrate ratio (w/w) of approximately 1:5). The solution is left at 37° C. overnight. 10 ml of the various degradation solutions is analyzed against a corresponding zero-sample using flow injection electrospray mass spectrometry (ESMS) with selected ion monitoring of the molecular ion. If the signal has decreased more than 20% compared to the zero-sample, the remainder of the solution is analyzed by HPLC and mass spectrometry in order to identify the extent and site(s) of degradation precisely.
Pancreatic enzyme mix: trypsin, chymotrypsin and elastase in 100 mM ammoniumbicarbonate pH 8.0 (all concentrations 0.025 mg/ml).
(§2) Mass spectrometric analysis was performed using two different mass spectrometers. A Sciex API III triple quadrupole LC-MS instrument (Sciex instruments, Thornhill, Ontario) equipped with an electrospray ion-source and a Bio-Ion 20 time-of-flight Plasma Desorption instrument (Bio-Ion Nordic AB, Uppsala, Sweden).
(§3) Quantification of the compounds (before and after degradation) was done on the API III instrument using single ion monitoring of the molecular ion in question with flow injection of the analyte. […]
A short description of data set [2]: Pharmacokinetics in fasted Beagle dogs. Type of data set: in vivo. The settings on record: dog, plasma; for half-life: in 5% glucose solution, non-compartmental, read-out: Plasma half-life T½ (converted); for bioavailability: intravenous and oral administration in 5% glucose solution, read-out: Oral bioavailability Fpo. The method, then:
The pharmakokinetic data were obtained by following procedure:
The pharmacokinetics of the test compounds were investigated in fasted Beagle dogs.
Intravenous and oral administration of the test compound, in 5% glucose solution, was separated by a one weeks washout.
Blood samples were collected immediately before drug administration (time zero) and than 0.08, 0.25, 0.50, 0.75, 1.0, 1.5, 2.0, 3.0, 4.0, 5.0, and 6.0 hours after administration.
The plasma samples were stored frozen (<−18° C.) pending analysis.
An HPLC method with solid phase extraction and UV detection was used for the quantification of the compound in plasma.
The pharmacokinetic parameters for compounds were calculated by non-compartmental methods using the PC based pharmacokinetic software WinNonlin, version 1.1 (Scientific Consulting Inc., Apex, N.C., USA).

Method for carboxypeptidase Y and B: as §1
Carboxypeptidase mix: carboxypeptidase Y and B in 50 mM ammoniumacetate pH 4.5 (all concentrations 0.025 mg/ml).
as §2, §3

Consider `C[C@H](NC(=O)[C@@H](Cc1ccc2ccccc2c1)NC(=O)[C@@H](C)N)C(=O)N[C@@H](Cc1c[nH]c2ccccc12)C(=O)N[C@H](Cc1ccccc1)C(=O)N[C@@H](CCCCN)C(N)=O` [GHRP-2] (H-[dA][d2Nal]AW[dF]K-NH2), for which the “Carboxy-peptidase mix (stability)” value with carboxypeptidase Y and B is “− (Unstable (more than 20% decrease in SIM signal after 24 h in degradation solution))”. The “Pan. enzyme mix (stability)” value in data set [1] is “− (Unstable (more than 20% decrease in SIM signal after 24 h in degradation solution))”.

On to `C[C@H](NC(=O)[C@@H](Cc1c[nH]c2ccccc12)NC(=O)[C@@H](N)Cc1c[nH]cn1)C(=O)N[C@@H](Cc1c[nH]c2ccccc12)C(=O)N[C@H](Cc1ccccc1)C(=O)N[C@@H](CCCCN)C(N)=O` [GHRP-6] (H-H[dW]AW[dF]K-NH2), for which, in the data set with carboxypeptidase Y and B, the “Carboxy-peptidase mix (stability)” value is recorded as “− (Unstable (more than 20% decrease in SIM signal after 24 h in degradation solution))”. Moreover, the “Pan. enzyme mix (stability)” value in data set [1] is reported as “− (Unstable (more than 20% decrease in SIM signal after 24 h in degradation solution))”.

By half-life is commonly meant how long it takes for the measured level to halve. As for `CN(C(=O)/C=C/CC(C)(C)N)[C@H](Cc1ccc2ccccc2c1)C(=O)N(C)[C@H](Cc1ccccc1)C(=O)NCCc1ccncc1` [Example 408 from WO 9723508], in data set [2], the half-life is 3.89 h and the bioavailability was found to be 26%.

As to `CN(CCc1ccccn1)C(=O)[C@@H](Cc1ccccc1)N(C)C(=O)[C@@H](Cc1ccc2ccccc2c1)N(C)C(=O)/C=C/CC(C)(C)N` [Example 1, (2E)-5-Amino-5-methylhex-2-enoic acid N-methyl-N-[(1R)-1-(N-methyl-N-{(1R)-1-[N-methyl-N-(2-(2-pyridinyl)ethyl)carbamoyl]-2-phenylethyl}carbamoyl)-2-(2-naphthyl)ethyl]amide], in data set [2], the half-life is 2 h and the bioavailability turned out to be 34%.
